Among the data in US7932246B2, “Histone deacetylase inhibitors” (Chroma Therapeutics Ltd., priority 2005, dated 2011) are IC50 values, retold here.

The subject of one assay is HeLa cells. Nature of the assay: HeLa cell inhibition assay (SRB cell viability). In kind it is cell-based. The settings on record: Homo sapiens, HeLa, 72 h, IC50 range. The method, then:
HeLa cells growing in log phase were harvested and seeded at 1000 cells/well (200 μl final volume) into 96-well tissue culture plates. Following 24 h of cell growth cells were treated with compounds (final concentration of 20 μM). Plates were then re-incubated for a further 72 h before a sulphorhodamine B (SRB) cell viability assay was conducted according to Skehan 1990 J Natl Canc Inst 82, 1107-1112.
(§1) Data were expressed as a percentage inhibition of the control, measured in the absence of inhibitor, as follows:— % inhibition=100−[(S^i/S^o)×100] where S^i is the signal in the presence of inhibitor and S^o is the signal in the presence of DMSO.
IC50 values were determined by non-linear regression analysis, after fitting the results of eight data points to the equation for sigmoidal dose response with variable slope (% activity against log concentration of compound), using Graphpad Prism software.
(§2) IC50 results were allocated to one of 3 ranges as follows: […]

A further assay has as its system HUT. The assay is described as follows: HUT cell inhibition assay (WST-1 cell viability). In kind it is cell-based. As to conditions: HUT cells, 72-96 h, WST-1 assay, IC50 range. The method, then:
(§3) Cancer cell lines (U937 and HUT) growing in log phase were harvested and seeded at 1000-2000 cells/well (100 μl final volume) into 96-well tissue culture plates. Following 24 h of growth cells were treated with compound. Plates were then re-incubated for a further 72-96 h before a WST-1 cell viability assay was conducted according to the suppliers (Roche Applied Science) instructions.
as §1
(§4) Dose response curves were generated from 8 concentrations (top final concentration 10 μM, with 3-fold dilutions), using 6 replicates.
(§5) IC50 values were determined by non-linear regression analysis, after fitting the results to the equation for sigmoidal dose response with variable slope (% activity against log concentration of compound), using Graphpad Prism software.
as §2

Assay [1] deals with histone deacetylase activity (HeLa nuclear extract). Nature of the assay: HDAC fluorescent activity assay (Biomol, Fluor de Lys substrate). In kind it is biochemical. The settings on record: IC50 range. The method, then: The ability of compounds to inhibit histone deacetylase activities was measured using the commercially available HDAC fluorescent activity assay from Biomol. In brief, the Fluor de Lys™ substrate, a lysine with an epsilon-amino acetylation, is incubated with the source of histone deacetylase activity (HeLa nuclear extract) in the presence or absence of inhibitor. Deacetylation of the substrate sensitises the substrate to Fluor de Lys™ developer, which generates a fluorophore.
Data are expressed as a percentage of the control, measured in the absence of inhibitor, with background signal being subtracted from all samples, as follows:— % activity=[(S^i−B)/(S^o−B)]×100 where S^i is the signal in the presence of substrate, enzyme and inhibitor, S^o is the signal in the presence of substrate, enzyme and the vehicle in which the inhibitor is dissolved, and B is the background signal measured in the absence of enzyme.
Histone deacetylase activity from crude nuclear extract derived from HeLa cells was used for screening. The preparation, purchased from 4C (Seneffe, Belgium), was prepared from HeLa cells harvested whilst in exponential growth phase. The nuclear extract is prepared according to Dignam JD1983 Nucl. Acid. […] The final buffer composition was 20 mM Hepes, 100 mM KCl, 0.2 mM EDTA, 0.5 mM DTT, 0.2 mM PMSF and 20% (v/v) glycerol.

The test system of a further assay is U937. The assay is described as follows: U937 cell inhibition assay (WST-1 cell viability). In kind it is cell-based. As to conditions: Homo sapiens, U-937; U937 cells, 72-96 h, WST-1 assay, IC50 range. As to the method:
as §3, §1, §4, §5, §2

As for `O=C(NO)c1cnc(N2CC3C(C2)C3NC(c2ccccc2)C(F)(F)F)nc1` (centres unmarked) [Example 40, N-Hydroxy 2-{6-[(2,2,2-trifluoro-1-phenylethyl)amino]-3-azabicyclo[3.1.0]hex-3-yl}pyrimidine-5-carboxamide], the IC50 in the assay on HeLa cells is 331 to 3300 nM; in the assay on HUT, below 330 nM; in assay [1], below 100 nM; in the assay with U937, 331 to 3300 nM.

Take `O=C(NO)c1cnc(N2CC3C(C2)C3NCc2ccc(F)cc2)nc1` (centres unmarked) [Example 41, N-Hydroxy 2-{6-[(4-fluorobenzyl)amino]-3-azabicyclo[3.1.0]hex-3-yl}pyrimidine-5-carboxamide]: the half-maximal inhibitory concentration (IC50) was 331 to 3300 nM with HeLa cells, below 330 nM in the assay on HUT, below 100 nM in assay [1] and below 330 nM in the assay with U937.

With `O=C(NO)c1cnc(N2CC3C(C2)C3NCc2ccc(C(F)(F)F)cc2)nc1` (centres unmarked) [Example 42], the IC50 is 331 to 3300 nM in the assay on HeLa cells, below 330 nM with HUT, below 100 nM in assay [1] and 331 to 3300 nM in the assay with U937.

Turning to `O=C(NO)c1cnc(N2CC3C(C2)C3NCc2ccc3ccccc3n2)nc1` (centres unmarked) [Example 43, N-Hydroxy 2-{6-[(quinolin-2-ylmethyl)amino]-3-azabicyclo[3.1.0]hex-3-yl}pyrimidine-5-carboxamide], the IC50 was below 330 nM in the assay with HeLa cells, below 330 nM with HUT, below 100 nM in assay [1] and below 330 nM with U937.

For `O=C(NO)c1cnc(N2CC3C(C2)C3NCc2ccc3cc(F)ccc3n2)nc1` (centres unmarked) [Example 44, N-Hydroxy 2-(6-{[(6-fluoroquinolin-2-yl)methyl]amino}-3-azabicyclo[3.1.0]hex-3-yl)pyrimidine-5-carboxamide], the IC50 in the assay with HeLa cells is below 330 nM; in the assay on HUT it was below 330 nM; in assay [1], below 100 nM; with U937, below 330 nM.

For the compound `CN(C1C2CN(c3ncc(C(=O)NO)cn3)CC21)S(=O)(=O)c1ccc2ccccc2c1` (centres unmarked) [Example 45, N-Hydroxy 2-{6-[methyl(naphthalene-2-sulfonyl)-amino]-3-aza-bicyclo[3.1.0]hex-3-yl}pyrimidine-5-carboxamide], the IC50 is 331 to 3300 nM in the assay on HeLa cells, below 330 nM with HUT, below 100 nM in assay [1] and 331 to 3300 nM in the assay on U937.

Turning to `O=C(NO)c1cnc(N2CC3C(C2)C3N(CCN2CCCC2)S(=O)(=O)c2ccc3ccccc3c2)nc1` (centres unmarked) [Example 46, N-Hydroxy 2-{6-[(naphthalene-2-sulfonyl)-(2-pyrrolidin-1-yl-ethyl)amino]-3-azabicyclo[3.1.0]hex-3-yl}pyrimidine-5-carboxamide], the IC50 in the assay on HeLa cells is below 330 nM; in the assay with HUT, below 330 nM; in assay [1], below 100 nM; in the assay on U937, below 330 nM.

Take `Cc1nccn1CCN(C1C2CN(c3ncc(C(=O)NO)cn3)CC21)S(=O)(=O)c1ccc2ccccc2c1` (centres unmarked) [Example 47, N-Hydroxy 2-{6-[[2-(2-methylimidazol-1-yl)ethyl](naphthalene-2-sulfonyl)amino]-3-azabicyclo[3.1.0]hex-3-yl}pyrimidine-5-carboxamide]: the IC50 in the assay with HeLa cells is 331 to 3300 nM; with HUT, 331 to 3300 nM; in assay [1], below 100 nM; in the assay with U937, 331 to 3300 nM.

`O=C(NO)c1cnc(N2CC3C(C2)C3N(CCN2CCCC2=O)S(=O)(=O)c2ccc3ccccc3c2)nc1` (centres unmarked) [Example 48, N-Hydroxy 2-(6-{(naphthalene-2-sulfonyl)-[2-(2-oxopyrrolidin-1-yl)ethyl]amino}-3-aza-bicyclo[3.1.0]hex-3-yl)pyrimidine-5-carboxamide]: the IC50 in the assay on HeLa cells is 331 to 3300 nM; in the assay on HUT, 331 to 3300 nM; in assay [1], below 100 nM; in the assay with U937 it was 331 to 3300 nM.

As for `O=C(NO)c1cnc(N2CC3C(C2)C3N(CCO)S(=O)(=O)c2ccc3ccccc3c2)nc1` (centres unmarked) [Example 49, N-Hydroxy 2-{6-[(2-hydroxyethyl)(naphthalene-2-sulfonyl)amino]-3-azabicyclo[3.1.0]hex-3-yl}pyrimidine-5-carboxamide], the IC50 in the assay on HeLa cells is 331 to 3300 nM; with HUT it was 331 to 3300 nM; in assay [1], below 100 nM; with U937, 331 to 3300 nM.

Consider `O=C(NO)c1cnc(N2CC3C(C2)C3N(CCN2CCOCC2)S(=O)(=O)c2ccc3ccccc3c2)nc1` (centres unmarked) [Example 51], for which the half-maximal inhibitory concentration (IC50) in the assay with HeLa cells is below 330 nM; with HUT, below 330 nM; in assay [1], below 100 nM; in the assay on U937, below 330 nM.

Consider `O=C(NO)c1cnc(N2CC3C(C2)C3N(CCN2CCCCC2)S(=O)(=O)c2ccc3ccccc3c2)nc1` (centres unmarked) [Example 53, N-Hydroxy 2-{6-[(naphthalene-2-sulfonyl)-(2-piperidin-1-ylethyl)amino]-3-azabicyclo[3.1.0]hex-3-yl}pyrimidine-5-carboxamide], for which the IC50 in the assay on HeLa cells is below 330 nM; in the assay with HUT, below 330 nM; in assay [1] it was below 100 nM; in the assay with U937, below 330 nM.

With `O=C(NO)c1cnc(N2CC3C(C2)C3N(CCc2ccccn2)S(=O)(=O)c2ccc3ccccc3c2)nc1` (centres unmarked) [Example 54, N-Hydroxy 2-{6-[(naphthalene-2-sulfonyl)-(2-pyridin-2-ylethyl)-amino]-3-azabicyclo[3.1.0]hex-3-yl}pyrimidine-5-carboxamide], the half-inhibitory concentration (IC50) is 331 to 3300 nM with HeLa cells, 331 to 3300 nM with HUT, below 100 nM in assay [1] and 331 to 3300 nM with U937.

Turning to `O=C(NO)c1cnc(N2CC3C(C2)C3N(CCN2CCCC2=O)S(=O)(=O)c2ccc(OC(F)(F)F)cc2)nc1` (centres unmarked) [Example 55, N-Hydroxy 2-{6-[[2-(2-oxopyrrolidin-1-yl)ethyl]-(4-trifluoromethoxybenzenesulfonyl)amino]-3-aza-bicyclo[3.1.0]hex-3-yl}pyrimidine-5-carboxamide], the IC50 is above 3300 nM in the assay with HeLa cells, 331 to 3300 nM in the assay on HUT, below 100 nM in assay [1] and 331 to 3300 nM with U937.

Take `CCN(CC)CCN(Cc1ccc2ccccc2c1)C1C2CN(c3ncc(C(=O)NO)cn3)CC21` (centres unmarked) [Example 56, N-Hydroxy 2-{6-[(2-diethylaminoethyl)naphthalen-2-ylmethylamino]-3-azabicyclo[3.1.0]hex-3-yl}pyrimidine-5-carboxamide]: the IC50 with HeLa cells is below 330 nM; in the assay on HUT, below 330 nM; in assay [1], below 100 nM; with U937, 331 to 3300 nM.

With `O=C(NO)c1cnc(N2CC3C(C2)C3N(Cc2ccc3ccccc3c2)Cc2ccc3ccccc3c2)nc1` (centres unmarked) [Example 57, N-Hydroxy 2-[6-(bisnaphthalen-2-ylmethylamino)-3-azabicyclo[3.1.0]hex-3-yl]pyrimidine-5-carboxamide], the IC50 was above 3300 nM in the assay on HeLa cells, above 3300 nM with HUT, above 1000 nM in assay [1] and above 3300 nM in the assay with U937.

`O=C(NO)c1cnc(N2CC3C(C2)C3N(Cc2cccnc2)Cc2ccc3ccccc3c2)nc1` (centres unmarked) [Example 58, N-Hydroxy 2-[6-(naphthalen-2-ylmethylpyridin-3-ylmethylamino)-3-aza-bicyclo[3.1.0]hex-3-yl]pyrimidine-5-carboxamide]: the IC50 in the assay on HeLa cells was in the range of 331 to 3300 nM; with HUT, 331 to 3300 nM; in assay [1] it was 101 to 1000 nM; in the assay with U937, 331 to 3300 nM.
